Source: PubChem BioAssay AID1963976 (Molecular Pharmacology Branch, DTP, NCI, 2024)
Blank lines part the entries; values can stand above or below the molecule they belong to.

Test system: 435261-313-R-J1-PDC tumor spheroid viability
Assay: Anticancer human tumor 435261-313-R-J1-PDC patient-derived colon adenocarcinoma cell line growth inhibition [PI3K]
Details: spheroids with HUVEC and MSC; for IC50: curve of first compound; for viability, T/C: stronger effect = lower value
Outline: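 High-throughput combination screen: PI3K inhibitors crossed with targeted small molecules on complex spheroids of tumor cells, HUVEC and MSCs at 37 degrees C, 5% CO2. Top concentration was at or near clinical Cmax (otherwise 10 microM), with half-log decrements.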

[1] = second compound 0.0316 µM, first compound 0.000316 µM
[2] = second compound 0.0316 µM, first compound 0.001 µM
[3] = second compound 0.0316 µM, first compound 0.00316 µM
[4] = second compound 0.0316 µM, first compound 0.01 µM
[5] = second compound 0.0316 µM, first compound 0.0316 µM
[6] = second compound 0.0316 µM, first compound 0.1 µM
[7] = second compound 0.1 µM, first compound 0.000316 µM
[8] = second compound 0.1 µM, first compound 0.001 µM
[9] = second compound 0.1 µM, first compound 0.00316 µM
[10] = second compound 0.1 µM, first compound 0.01 µM
[11] = second compound 0.1 µM, first compound 0.0316 µM
[12] = second compound 0.1 µM, first compound 0.1 µM
[13] = second compound 0.316 µM, first compound 0.000316 µM
[14] = second compound 0.316 µM, first compound 0.001 µM
[15] = second compound 0.316 µM, first compound 0.00316 µM
[16] = second compound 0.316 µM, first compound 0.01 µM
[17] = second compound 0.316 µM, first compound 0.0316 µM
[18] = second compound 0.316 µM, first compound 0.1 µM
[19] = second compound 1 µM, first compound 0.000316 µM
[20] = second compound 1 µM, first compound 0.001 µM
[21] = second compound 1 µM, first compound 0.00316 µM
[22] = second compound 1 µM, first compound 0.01 µM
[23] = second compound 1 µM, first compound 0.0316 µM
[24] = second compound 1 µM, first compound 0.1 µM
[25] = second compound 3.16 µM, first compound 0.000316 µM
[26] = second compound 3.16 µM, first compound 0.001 µM
[27] = second compound 3.16 µM, first compound 0.00316 µM
[28] = second compound 3.16 µM, first compound 0.01 µM
[29] = second compound 3.16 µM, first compound 0.0316 µM
[30] = second compound 3.16 µM, first compound 0.1 µM
[31] = second compound 10 µM, first compound 0.000316 µM
[32] = second compound 10 µM, first compound 0.001 µM
[33] = second compound 10 µM, first compound 0.00316 µM
[34] = second compound 10 µM, first compound 0.01 µM
[35] = second compound 10 µM, first compound 0.0316 µM
[36] = second compound 10 µM, first compound 0.1 µM
[37] = second compound 0.0316 µM, first compound 0.316 µM
[38] = second compound 0.0316 µM, first compound 1 µM
[39] = second compound 0.0316 µM, first compound 3.16 µM
[40] = second compound 0.0316 µM, first compound 10 µM
[41] = second compound 0.1 µM, first compound 0.316 µM
[42] = second compound 0.1 µM, first compound 1 µM
[43] = second compound 0.1 µM, first compound 3.16 µM
[44] = second compound 0.1 µM, first compound 10 µM
[45] = second compound 0.316 µM, first compound 0.316 µM
[46] = second compound 0.316 µM, first compound 1 µM
[47] = second compound 0.316 µM, first compound 3.16 µM
[48] = second compound 0.316 µM, first compound 10 µM
[49] = second compound 1 µM, first compound 0.316 µM
[50] = second compound 1 µM, first compound 1 µM
[51] = second compound 1 µM, first compound 3.16 µM
[52] = second compound 1 µM, first compound 10 µM
[53] = second compound 3.16 µM, first compound 0.316 µM
[54] = second compound 3.16 µM, first compound 1 µM
[55] = second compound 3.16 µM, first compound 3.16 µM
[56] = second compound 3.16 µM, first compound 10 µM
[57] = second compound 10 µM, first compound 0.316 µM
[58] = second compound 10 µM, first compound 1 µM
[59] = second compound 10 µM, first compound 3.16 µM
[60] = second compound 10 µM, first compound 10 µM
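Also: spheroids exposed to compounds for 7 days.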

- IC50 (second compound 0.0316 µM): 26.3 nM
- IC50 (second compound 0.1 µM): 20.2 nM
- IC50 (second compound 0.316 µM): 3.58 nM
- IC50 (second compound 1 µM): < 0.316 nM
- IC50 (second compound 3.16 µM): < 0.316 nM
- IC50 (second compound 10 µM): < 0.316 nM
Structure (SMILES): CC(C)n1nc(-c2ccc3oc(N)nc3c2)c2c(N)ncnc21 + Cc1nc(NC(=O)N2CCCC2C(N)=O)sc1-c1ccnc(C(C)(C)C(F)(F)F)c1
- viability, T/C [1]: 83.6%
- viability, T/C [2]: 93%
- viability, T/C [3]: 76.7%
- viability, T/C [4]: 47.9%
- viability, T/C [5]: 62%
- viability, T/C [6]: 13.6%
- viability, T/C [7]: 76.9%
- viability, T/C [8]: 71.1%
- viability, T/C [9]: 94.3%
- viability, T/C [10]: 65.6%
- viability, T/C [11]: 38.6%
- viability, T/C [12]: 15.4%
- viability, T/C [13]: 46.4%
- viability, T/C [14]: 67.7%
- viability, T/C [15]: 45.8%
- viability, T/C [16]: 40%
- viability, T/C [17]: 18.3%
- viability, T/C [18]: 12.8%
- viability, T/C [19]: 30.6%
- viability, T/C [20]: 30.5%
- viability, T/C [21]: 30.3%
- viability, T/C [22]: 20.2%
- viability, T/C [23]: 19.6%
- viability, T/C [24]: 9.5%
- viability, T/C [25]: 13.1%
- viability, T/C [26]: 23.9%
- viability, T/C [27]: 21.7%
- viability, T/C [28]: 19.1%
- viability, T/C [29]: 12.1%
- viability, T/C [30]: 7.83%
- viability, T/C [31]: 10.6%
- viability, T/C [32]: 10.1%
- viability, T/C [33]: 9.88%
- viability, T/C [34]: 8.69%
- viability, T/C [35]: 4.8%
- viability, T/C [36]: 4.03%

- IC50 (second compound 0.0316 µM): 5030 nM
- IC50 (second compound 0.1 µM): 4930 nM
- IC50 (second compound 0.316 µM): 3530 nM
- IC50 (second compound 1 µM): < 31.6 nM
- IC50 (second compound 3.16 µM): < 31.6 nM
- IC50 (second compound 10 µM): < 31.6 nM
Structure (SMILES): CC1(C)CCC(CN2CCN(c3ccc(C(=O)NS(=O)(=O)c4ccc(NCC5CCOCC5)c([N+](=O)[O-])c4)c(Oc4cnc5[nH]ccc5c4)c3)CC2)=C(c2ccc(Cl)cc2)C1 + Cc1nc(NC(=O)N2CCCC2C(N)=O)sc1-c1ccnc(C(C)(C)C(F)(F)F)c1
- viability, T/C [5]: 50.2%
- viability, T/C [6]: 81.4%
- viability, T/C [37]: 78.5%
- viability, T/C [38]: 83%
- viability, T/C [39]: 95.5%
- viability, T/C [40]: 8.94%
- viability, T/C [11]: 51.2%
- viability, T/C [12]: 74.1%
- viability, T/C [41]: 93.8%
- viability, T/C [42]: 69.1%
- viability, T/C [43]: 90.8%
- viability, T/C [44]: 8.73%
- viability, T/C [17]: 50.5%
- viability, T/C [18]: 57.7%
- viability, T/C [45]: 44%
- viability, T/C [46]: 61.1%
- viability, T/C [47]: 58.6%
- viability, T/C [48]: 9.2%
- viability, T/C [23]: 26.7%
- viability, T/C [24]: 24.3%
- viability, T/C [49]: 27.9%
- viability, T/C [50]: 25.4%
- viability, T/C [51]: 22.6%
- viability, T/C [52]: 4.29%
- viability, T/C [29]: 16.6%
- viability, T/C [30]: 16.1%
- viability, T/C [53]: 13.4%
- viability, T/C [54]: 18.5%
- viability, T/C [55]: 18.1%
- viability, T/C [56]: 4.62%
- viability, T/C [35]: 9.42%
- viability, T/C [36]: 8.27%
- viability, T/C [57]: 7.16%
- viability, T/C [58]: 8.26%
- viability, T/C [59]: 8.41%
- viability, T/C [60]: 2.21%

- IC50 (second compound 0.0316 µM): 5150 nM
- IC50 (second compound 0.1 µM): 4870 nM
- IC50 (second compound 0.316 µM): 4370 nM
- IC50 (second compound 1 µM): 31.6 nM
- IC50 (second compound 3.16 µM): < 31.6 nM
- IC50 (second compound 10 µM): < 31.6 nM
Structure (SMILES): CCCS(=O)(=O)Nc1ccc(F)c(C(=O)c2c[nH]c3ncc(-c4ccc(Cl)cc4)cc23)c1F + Cc1nc(NC(=O)N2CCCC2C(N)=O)sc1-c1ccnc(C(C)(C)C(F)(F)F)c1
- viability, T/C [5]: 68.7%
- viability, T/C [6]: 117%
- viability, T/C [37]: 121%
- viability, T/C [38]: 107%
- viability, T/C [39]: 83%
- viability, T/C [40]: 5.07%
- viability, T/C [11]: 78.3%
- viability, T/C [12]: 95.7%
- viability, T/C [41]: 104%
- viability, T/C [42]: 83.9%
- viability, T/C [43]: 77%
- viability, T/C [44]: 6.18%
- viability, T/C [17]: 57.6%
- viability, T/C [18]: 78%
- viability, T/C [45]: 70.4%
- viability, T/C [46]: 64.5%
- viability, T/C [47]: 67.8%
- viability, T/C [48]: 4.86%
- viability, T/C [23]: 25.2%
- viability, T/C [24]: 37.8%
- viability, T/C [49]: 73.2%
- viability, T/C [50]: 59.3%
- viability, T/C [51]: 38.3%
- viability, T/C [52]: 4.97%
- viability, T/C [29]: 17.6%
- viability, T/C [30]: 21.1%
- viability, T/C [53]: 32.8%
- viability, T/C [54]: 35.9%
- viability, T/C [55]: 24.6%
- viability, T/C [56]: 4.64%
- viability, T/C [35]: 11.3%
- viability, T/C [36]: 12.2%
- viability, T/C [57]: 14.2%
- viability, T/C [58]: 15.7%
- viability, T/C [59]: 14.9%
- viability, T/C [60]: 1.88%

- IC50 (second compound 0.0316 µM): > 100 nM
- IC50 (second compound 0.1 µM): > 100 nM
- IC50 (second compound 0.316 µM): 6.18 nM
- IC50 (second compound 1 µM): < 0.316 nM
- IC50 (second compound 3.16 µM): < 0.316 nM
- IC50 (second compound 10 µM): < 0.316 nM
Structure (SMILES): Cn1ncnc1[C@H]1c2n[nH]c(=O)c3cc(F)cc(c23)N[C@@H]1c1ccc(F)cc1 + Cc1nc(NC(=O)N2CCCC2C(N)=O)sc1-c1ccnc(C(C)(C)C(F)(F)F)c1
- viability, T/C [1]: 81.6%
- viability, T/C [2]: 65%
- viability, T/C [3]: 79.8%
- viability, T/C [4]: 77.1%
- viability, T/C [5]: 79.1%
- viability, T/C [6]: 66.4%
- viability, T/C [7]: 63%
- viability, T/C [8]: 93.9%
- viability, T/C [9]: 65.5%
- viability, T/C [10]: 64.8%
- viability, T/C [11]: 66.4%
- viability, T/C [12]: 56.3%
- viability, T/C [13]: 35.8%
- viability, T/C [14]: 62.8%
- viability, T/C [15]: 49.4%
- viability, T/C [16]: 59.8%
- viability, T/C [17]: 39.4%
- viability, T/C [18]: 36.6%
- viability, T/C [19]: 36.5%
- viability, T/C [20]: 29.8%
- viability, T/C [21]: 24.6%
- viability, T/C [22]: 30.5%
- viability, T/C [23]: 26.9%
- viability, T/C [24]: 22.8%
- viability, T/C [25]: 16.4%
- viability, T/C [26]: 21.4%
- viability, T/C [27]: 17.5%
- viability, T/C [28]: 18.5%
- viability, T/C [29]: 18.4%
- viability, T/C [30]: 16.7%
- viability, T/C [31]: 10.5%
- viability, T/C [32]: 9.23%
- viability, T/C [33]: 7.91%
- viability, T/C [34]: 9.55%
- viability, T/C [35]: 9%
- viability, T/C [36]: 7.58%
